Experimental findings from US9540691B2, “Assays and methods for selecting a treatment regimen for a subject with depression” (THE GENERAL HOSPITAL CORPORATION, priority 2011, dated 2017) are described below.

Where two headings read alike, the source gives them in different places.

This experiment has as its system patients with major depressive disorder (MDD) resistant to treatment with SSRIs. The source says: Using the sequential parallel design […] For those randomly assigned to the placebo/placebo sequence, both responders and non-responders to placebo during the first phase (n=25) remain on placebo during the second phase. […] Data from the previous double-blind, placebo-controlled study (Trial 1) can be pooled into the instant study (Trial 2) to provide a more accurate estimate of the placebo effect size, with a weighted average from the two Phases 1 (one from Trial 1 and one from Trial 2) and two Phases 2 (one from Trial 1 and one from Trial 2).
The primary efficacy measure can include the change in 17-item Hamilton Rating Scale for Depression (HAM-D-17) score. […] A remission is, for example, defined as a HAM-D-17 score less than 8 at endpoint. Secondary measures of efficacy can include change in CGI-severity, with “clinical response defined” as CGI-S of 1 or 2 at endpoint. Patients with a CGI-I score greater than 5 at any post baseline visit or a 50 percent or greater worsening of depressive symptoms from baseline to that visit are discontinued from the study. Subjects are also discontinued from the study with any emergence of suicidality, homicidality, mania, or psychosis. Additional exemplary instruments that can be administered according to the study schedule include the following: • (1) Structured Clinical Interview for DSM-IV: The SCID-I/P, administered by the clinician, proceeds by modules to diagnose the different Axis I disorders. Questions are asked exactly as written, and each is based on the individual criteria from DSM-IV. Answers are generally rated on a scale of 1-3 (1=doubtful, 2=probable, 3=definite), and, based on the number of positive answers, a diagnosis is determined by a clinician. While the entire SCID-UP is administered at screen, the mood module is administered at each follow up visit. • (2) The MGH Antidepressant Treatment History Questionnaire (MGH-ATR): The MGH-ATR provides specific criteria for the adequate dose and adequate length of a trial for it to be considered a failure, thus allowing clinicians to systematically collect data aimed at assessing the degree of treatment-resistance of the current major depressive episode. • (3) The 28-item Hamilton Depression Scale (HAM-D-28): This version allows scoring of the HAM-D-17, 21-, 25-, and 28-item scales. This instrument is completed by the clinician by using a structured interview and defined anchor points, and aims to quantify the degree of depression over the past 7 days. The HAM-D is the most widely studied instrument for depression, and its reliability and validity are high. • (4) Clinical Global Impressions-Severity and Improvement (CGI-S, CGI-I): These two instruments are scored 1-7 by the clinician based on assessment of the patient's clinical status. They measure, based on history and scores on other instruments: a) Depressive severity (CGI-S) and b) Clinical Improvement (CGI-I). […] Safety Measurements
Data are entered and error-checked at each clinical site involved in the study. Study staff and subjects may have the option to enter self-evaluations into the system directly using DatStat Illume™. The process of data entry is supervised by the DCRP staff. Once the data set is entered and checked, analyses are conducted. Both a completer analysis of all patients finishing the trial and an intent-to-treat analysis examining all patients enrolled into the trial are used to define the severity of depression at endpoint. Examination of both study completers and all patients randomized can provide the broadest assessment of the effects of treatment in trials of such kind. The data from Trial 2 can be pooled with those from Trial 1 with the sequential parallel comparison design, to provide an estimate of the placebo response based on a larger sample size. […] Let p1, q1 be the response rates to the first administration of drug and placebo respectively and let p2, q2 be the responses rates to the second treatment.

Where [1] appears, read: 7.5 mg/day adjunct to SSRI, Phase 1.
The mark [2] stands for this setting: 7.5 mg/day adjunct to SSRI, Phase 2 (Phase 1 completers/non-responders only).
Setting [3] is: 7.5 mg/day adjunct to SSRI, pooled Phases 1 and 2 (SPCD).

Consider `CN1c2c(nc(N)[nH]c2=O)NC[C@@H]1CNc1ccc(C(=O)N[C@@H](CCC(=O)O)C(=O)O)cc1` [6(S)-5-MTHF, 6(S)-5-methyltetrahydrofolate], for which the “efficacy as an adjunct to the SSRIs (in words)” value (7.5 mg/day) is “not effective”. Also, under setting [1], the “CGI-S Mean score reduction (SD)” value is −0.5 (0.9), the “HDRS-17 % Remission” value was 11.1% (4), the “HDRS-17 % Response” value is reported as 19.8% (7) and the “HDRS-17 Mean score reduction (SD)” value is reported as −4.3 (5.0). Besides, under setting [1], the “QIDS-SR % Remission” value is given as 0.0% (0), the “QIDS-SR % Responsive” value is given as 25.0% (9) and the “QIDS-SR Mean score reduction (SD)” value is given as −4.6 (5.1). Also, under setting [2], the “CGI-S Mean score reduction (SD)” value is on record as −0.5 (0.7), the “HDRS-17 % Remission” value is recorded as 14.2% (5), the “HDRS-17 % Response” value is given as 17.1% (6) and the “HDRS-17 Mean score reduction (SD)” value is given as −3.1 (4.2). Further, under setting [2], the “QIDS-SR % Remission” value is recorded as 8.5% (3), the “QIDS-SR % Responsive” value was 8.5% (3) and the “QIDS-SR Mean score reduction (SD)” value is reported as 4.8 (4.1). Also, under setting [3], the “CGI-S Mean score reduction” value is reported as −0.53, the “HDRS-17 Mean score reduction” value was −3.70, the “QIDS-SR % Remission” value amounted to 4.3% and the “QIDS-SR % Responsive” value turned out to be 19.8%. Moreover, the “QIDS-SR Mean score reduction” value under setting [3] was −0.25. For the same compound, for the setting “15 mg/day in second phase, drug/drug sequence”, the “increase in response and remission rate compared to placebo with SSRIs” value is given as “at least 2 fold”. The “response and remission rate” value (dose increased from 7.5 to 15 mg/day in second phase, drug/drug sequence, placebo with SSRIs 9%, p=0.1) came to 24%.
